In publication PMC4721923 (PLoS ONE, 2015):
Where two headings read alike, the source gives them in different places.

Assays:
[1] = system: HEL 92.1.7 cells (erythroleukemia); assay: Chemosensitivity assay (MTT-assay), HEL 92.1.7; type: cell-based, human; conditions: 96 hours of incubation, mean ± SEM
Method: (§1) Depending on the characteristics of the cells, two different assays were performed. For adherently growing cells (HaCaT, HT-29, NCI-H460, SK-MEL-3, MG-63, Capan-1), cytotoxic and cytocidal effects were determined in the crystal violet assay, whereas for loosely adherent cells (LNCaP, SK-ES-1) and cells growing in suspension (HEL 92.1.7, Jurkat, U-937) the MTT-assay was used with minor modifications. In brief, 1.5 · 10^3 (HaCaT, HT-29, NCI-H460, SK-MEL-3, MG-63, Capan-1) or 5 · 10^3 (Jurkat, U-937, HEL92.1.7, LNCaP, SK-ES-1) cells per well were seeded into flat-bottom 96-well plates (Sarstedt, Nümbrecht, Germany). All compounds were used as solutions prepared in DMSO and tested at final concentrations (8 replicates per concentration) of 1, 3, 10, 30 and 50 μM. In case of the vehicle control and test compounds, the final DMSO concentration amounted to 0.1%. Absorbance was measured at 580 nm in a 96-well plate reader (GENios pro microplate reader, Tecan, Salzburg, Austria). Effects were quantified as previously described for both assays.

[2] = system: LNCaP cells (prostate cancer); assay: Chemosensitivity assay (MTT-assay), LNCaP; type: cell-based, human; conditions: 96 hours of incubation, mean ± SEM
Method: as §1

[3] = system: HT-29 cells (colorectal adenocarcinoma); assay: Chemosensitivity assay (crystal violet assay), HT-29; type: cell-based, human; conditions: 96 hours of incubation, mean ± SEM
Method: as §1

[4] = system: SK-MEL-3 cells (malignant melanoma); assay: Chemosensitivity assay (crystal violet assay), SK-MEL-3; type: cell-based, human; conditions: mean ± SEM
Method: as §1

p53 in HT-29 cells = assay: p53 expression by immunoblotting, HT-29; type: cell-based, human; conditions: HT-29 nuclear extracts; 10 μM; 24 hours
Method: The expression of the tumor suppressor p53 by NCI-H460 and HT-29 cells was determined after incubating the cells with compounds 1, 2, 4 and 5 at different concentrations for 24 hours. The cells (from a 10-cm culture dish, 70% confluency) were washed twice with PBS and harvested by scraping after addition of ice-cold buffer A (10 mM HEPES pH = 7.9, 10 mM KCl, 0.1 mM EDTA, 0.1 mM EGTA, protease inhibitor mix (Sigma-Aldrich)). After adding Nonidet P-40 (NP-40) (Sigma, Taufkirchen, Germany) to a final concentration of 1%, the cell suspensions were vortexed and subsequently centrifuged at 13000 g and 4°C for 30 seconds. The pellets were re-suspended in buffer B (buffer A + 400 mM NaCl, 1% NP-40) and gently agitated using a Sarmix M2000 (Sarstedt, Nümbrecht, Germany) at 4°C for 15 min, followed by centrifugation (13000 g, 4°C, 5 min; Microfuge; Eppendorf, Hamburg, Germany). The concentration of soluble protein was determined according to Bradford using the Bio-Rad Protein Assay (Bio-Rad Laboratories, Munich, Germany).
An amount of 30 μg total protein of each sample and 8 μL of a biotinylated molecular weight standard (1:6 dilution) (Cell Signaling, Danvers, MA, USA) was separated by SDS-PAGE (12% gel) and afterwards electroblotted (150 V, 30 min) to nitrocellulose membrane (Peqlab, Erlangen, Germany). To prevent unspecific binding, the membranes were treated with milk powder (5% (m/v) in buffer (150 mM NaCl, 20 mM Tris, 0.1% Tween 20, pH = 7.6)) before incubation with anti-p53 rabbit mAb (dilution 1:1000) (Cell Signaling) and anti-histone H2B Ab (dilution 1:1000) (Cell Signaling) as loading control at 4°C for 14 hours. The primary antibodies and the “protein ladder” were simultaneously detected with a horseradish peroxidase (HRP)-coupled donkey anti rabbit mAb (dilution 1:1000) (Santa Cruz biotechnology, Heidelberg, Germany) or the anti-biotin HRP-coupled antibody (dilution 1:5000) (Cell Signaling), respectively. The incubation with the secondary antibody was performed at room temperature for 1 hour. The bands were detected by […] using the Pierce ECL Western Blotting Substrate (Thermo Scientific, Dreieich, Germany). After exposure, the x-ray film (Amersham Hyperfilm ECL, GE Healthcare, München, Germany) was developed (CAWOMAT 2000 IR, CAWO, Schrobenhausen, Germany) and analyzed using a GS-710 imaging densitometer and Quantity One V. 4 software (Bio-Rad Laboratories, Munich, Germany).

NCI-H460 cells = assay: Stability in the presence of cells (HPLC); type: in vitro ADME, human; conditions: incubation period of 10 minutes
Method: The recently reported validated HPLC method was applied.
Samples were measured immediately before the incubation (t = 0 minutes) and after 10 minutes of incubation at 25°C (t = 10 minutes). […] (TIF) Click here for additional data file.

[5] = system: HaCaT cells (spontaneously immortalized human keratinocytes); assay: Kinetic toxicity assay (crystal violet) on HaCaT cells; type: cell-based; conditions: kinetic assay, 0.1, 1 and 10 μM, 5 days
Method: as §1, with “All compounds were used as solutions prepared in DMSO and tested at final concentrations (8 replicates per concentration) of 1, 3, 10, 30 and 50 μM.” left out

[6] = Homo sapiens, SK-MEL3, 96 hours of incubation, read-out: IC50

Row | SMILES | IC50 [1] | IC50 ([1]; Homo sapiens, HEL 92.1.7, 96 h) | IC50 [2] | IC50 ([2]; Homo sapiens, read-out: IC50) | IC50 [3] | IC50 ([3]; Homo sapiens, read-out: IC50) | IC50 ([4]; 96 hours of incubation) | IC50 [4, 6] | p53 expression (p53 in HT-29 cells) | stability in the presence of cells (NCI-H460 cells) | toxicity on HaCaT cells compared to tumor cells [5]
1 | Cn1c(CCCC(=O)O)nc2cc(N(CCCl)CCCl)ccc21 [Compound 1, bendamustine, reference compound] | 86200 ± 2600 nM | > 80000 nM | only very weakly active | 77900 ± 5600 nM | ineffective | > 100000 nM | ineffective | > 100000 nM | slight induction | Other decomposition products were not detected | –
2 | Cn1c(CCCC(=O)OCCN2CCCC2)nc2cc(N(CCCl)CCCl)ccc21 [Compound 5] | – | 1000 ± 10 nM | – | 500 ± 80 nM | – | 1100 ± 100 nM | – | 830 ± 180 nM | increased the expression of p53 | Other decomposition products were not detected | preferential toxicity against tumor cells
3 | Cn1c(CCCC(=O)OCCN2CCOCC2)nc2cc(N(CCCl)CCCl)ccc21 [Compound 4] | – | 2400 ± 1000 nM | – | 2200 ± 100 nM | – | 9000 ± 500 nM | – | 20900 ± 900 nM | increased the expression of p53 | Other decomposition products were not detected | preferential toxicity against tumor cells
4 | COC(=O)CCCc1nc2cc(N(CCCl)CCCl)ccc2n1C [Compound 2] | – | 2500 ± 100 nM | – | 950 ± 150 nM | – | 9400 ± 400 nM | – | 13800 ± 400 nM | increased the expression of p53 | Other decomposition products were not detected | –
